Measured values taken from patent publication US11104671B2, “Insecticidal compounds” (SYNGENTA PARTICIPATIONS AG, priority 2017, dated 2021).
Where two headings read alike, the source gives them in different places.

Key:
Assay type in all cases: in vivo
Euschistus heros = Euschistus heros (neotropical brown stink bug), soybean leaves sprayed, N2 nymphs; settings: 120 h, read-out: effect in at least one of the two categories (mortality or growth inhibition); for percent effect (mortality or growth inhibition) at 200 ppm: application rate 200 ppm, 5 days after infestation, N2 nymphs
Procedure: Euschistus heros (Neotropical Brown Stink Bug)
Soybean leaves on agar in 24-well microtiter plates were sprayed with aqueous test solutions prepared from 10,000 ppm DMSO stock solutions. After drying the leaves were infested with N2 nymphs. The samples were assessed for mortality and growth inhibition in comparison to untreated samples 5 days after infestation.

Thrips tabaci = Thrips tabaci (onion thrips), feeding/contact activity; settings: foliar, 144 h
Procedure: Thrips tabaci (Onion thrips) Feeding/Contact Activity
(§1) Sunflower leaf discs were placed on agar in 24-well microtiter plates and sprayed with aqueous test solutions prepared from 10,000 ppm DMSO stock solutions. After drying the leaf discs were infested with a thrips population of mixed ages. The samples were assessed for mortality 6 days after infestation.

Plutella xylostella = Plutella xylostella (diamond back moth), artificial diet, L2 larvae; settings: 120 h, read-out: effect in at least one of the two categories (mortality or growth inhibition); for percent effect (mortality or growth inhibition) at 200 ppm: application rate 200 ppm, 5 days after infestation, L2 larvae
Procedure: Plutella xylostella (Diamond Back Moth)
(§2) 24-well microtiter plates with artificial diet were treated with aqueous test solutions prepared from 10,000 ppm DMSO stock solutions by pipetting. After drying, the plates were infested with L2 larvae (10 to 15 per well). The samples were assessed for mortality and growth inhibition in comparison to untreated samples 5 days after infestation.

Myzus persicae [1] = test: Myzus persicae (green peach aphid), feeding/contact activity; settings: foliar, 144 h
Procedure: Myzus persicae (Green Peach Aphid): Feeding/Contact Activity
Sunflower leaf discs were placed onto agar in a 24-well microtiter plate and sprayed with aqueous test solutions prepared from 10,000 ppm DMSO stock solutions. After drying, the leaf discs were infested with an aphid population of mixed ages. The samples were assessed for mortality 6 days after infestation.

Tetranychus urticae = Tetranychus urticae (two-spotted spider mite), feeding/contact activity; settings: foliar, 192 h, read-out: mortality on mixed population (mobile stages)
Procedure: Tetranychus urticae (Two-Spotted Spider Mite): Feeding/Contact Activity
as §1, with “Bean” for “Sunflower”, “discs” for “discs were placed”, “were” for “and”, “mite” for “thrips”, “on mixed population (mobile stages) 8” for “6”

Diabrotica balteata = Diabrotica balteata (corn root worm), maize sprouts sprayed, L2 larvae; settings: 96 h, read-out: effect in at least one of the two categories (mortality or growth inhibition); for percent effect (mortality or growth inhibition) at 200 ppm: application rate 200 ppm, 4 days after infestation, L2 larvae
Procedure: Diabrotica Balteata (Corn Root Worm)
as §2, with “Maize sprouts placed onto an agar layer in 24-well” for “24-well”, “plates” for “plates with artificial diet”, “spraying.” for “pipetting.”, “(6” for “(10”, “10” for “15”, “4” for “5”

Spodoptera littoralis = Spodoptera littoralis (Egyptian cotton leaf worm), cotton leaf discs, L1 larvae; settings: foliar, 72 h, read-out: control (mortality, anti-feedant effect or growth inhibition)
Procedure: Spodoptera littoralis (Egyptian Cotton Leaf Worm)
Cotton leaf discs were placed onto agar in 24-well microtiter plates and sprayed with aqueous test solutions prepared from 10,000 ppm DMSO stock solutions. After drying the leaf discs were infested with five L1 larvae. The samples were assessed for mortality, anti-feeding effect, and growth inhibition in comparison to untreated samples 3 days after infestation. Control of Spodoptera littoralis by a test sample is given when at least one of the categories mortality, anti-feedant effect, and growth inhibition is higher than the untreated sample.

Myzus persicae [2] = test: Myzus persicae (green peach aphid), intrinsic activity; settings: 120 h
Description: Myzus persicae (Green Peach Aphid). Intrinsic Activity
Test compounds prepared from 10,000 ppm DMSO stock solutions were applied by pipette into 24-well microtiter plates and mixed with sucrose solution. The plates were closed with a stretched Parafilm. A plastic stencil with 24 holes was placed onto the plate and infested pea seedlings were placed directly on the Parafilm. The infested plate was closed with a gel blotting paper and another plastic stencil and then turned upside down. The samples were assessed for mortality 5 days after infestation.

[3] = application rate 200 ppm, 6 days after infestation, sunflower leaf discs, mixed ages, read-out: mortality
[4] = application rate 200 ppm, 8 days after infestation, bean leaf discs
[5] = application rate 200 ppm, 3 days after infestation, L1 larvae
[6] = test rate 12 ppm, 5 days after infestation, sucrose solution, infested pea seedlings, read-out: mortality

Cc1cc(C2=NO[C@](c3cc(Cl)cc(Cl)c3)(C(F)(F)F)[C@H]2Cl)ccc1C(=O)NC1CON(S(C)(=O)=O)C1 (stereo partly drawn) [Compound A4, 4-[(4S,5R)-4-chloro-5-(3,5-dichlorophenyl)-5-(trifluoromethyl)-4H-isoxazol-3-yl]-2-methyl-N-(2-methylsulfonylisoxazolidin-4-yl)benzamide]
≥ 80%: percent control (mortality or growth inhibition) at 200 ppm (Euschistus heros) | mortality at 200 ppm (Thrips tabaci) | percent control (mortality or growth inhibition) at 200 ppm (Plutella xylostella) | mortality at 200 ppm (Myzus persicae [1]) | mortality at 200 ppm (Tetranychus urticae) | percent control (mortality or growth inhibition) at 200 ppm (Diabrotica balteata) | percent control (mortality, anti-feedant effect or growth inhibition) at 200 ppm (Spodoptera littoralis) | mortality at 12 ppm (Myzus persicae [2])

Cc1cc(C2=NS[C@@](c3cc(Cl)cc(Cl)c3)(C(F)(F)F)C2)ccc1C(=O)NC1CON(S(C)(=O)=O)C1 (stereo partly drawn) [Compound A2, 4-[(5S)-5-(3,5-dichlorophenyl)-5-(trifluoromethyl)-4H-isothiazol-3-yl]-2-methyl-N-(2-methylsulfonylisoxazolidin-4-yl)benzamide]
≥ 80%: percent effect (mortality or growth inhibition) at 200 ppm (Euschistus heros) | mortality at 200 ppm (Thrips tabaci; [3]) | percent effect (mortality or growth inhibition) at 200 ppm (Plutella xylostella) | mortality at 200 ppm (Myzus persicae [1]; [3]) | mortality at 200 ppm (Tetranychus urticae; [4]) | percent effect (mortality or growth inhibition) at 200 ppm (Diabrotica balteata) | percent control (mortality, anti-feedant effect or growth inhibition) at 200 ppm (Spodoptera littoralis; [5]) | mortality at 12 ppm (Myzus persicae [2]; [6])

Cc1cc(C2=NCC(c3cc(Cl)c(F)c(Cl)c3)(C(F)(F)F)C2)ccc1C(=O)NC1CON(S(C)(=O)=O)C1 (stereo not drawn) [Compound A7, 4-[3-(3,5-dichloro-4-fluoro-phenyl)-3-(trifluoromethyl)-2,4-dihydropyrrol-5-yl]-2-methyl-N-(2-methylsulfonylisoxazolidin-4-yl)benzamide]
≥ 80%: percent effect (mortality or growth inhibition) at 200 ppm (Euschistus heros) | mortality at 200 ppm (Thrips tabaci; [3]) | percent effect (mortality or growth inhibition) at 200 ppm (Plutella xylostella) | mortality at 200 ppm (Myzus persicae [1]; [3]) | mortality at 200 ppm (Tetranychus urticae; [4]) | percent effect (mortality or growth inhibition) at 200 ppm (Diabrotica balteata) | percent control (mortality, anti-feedant effect or growth inhibition) at 200 ppm (Spodoptera littoralis; [5]) | mortality at 12 ppm (Myzus persicae [2]; [6])
